Measured values reported in US20210179598A1, “SELECTIVE JAK2 INHIBITOR AND APPLICATION THEREOF” (EAST CHINA UNIVERSITY OF SCIENCE AND TECHNOLOGY, priority 2018, published 2021).
Read-outs that look alike come from different tables or passages of the source.

How the values were obtained:
SET 2 (JAK2 V617F) cells = assay: CCK-8 cell proliferation detection, SET2 cells; type: cell-based; settings: Homo sapiens, Table 2, CCK-8, 72 hrs
Text: (§1) WST-8 (chemical name: 2-(2-methoxy-4-nitrophenyl)-3-(4-nitrophenyl)-5-(2,4-disulfo benzene)-2H-tetrazolium monosodium), which is reduced to a highly water-soluble yellow formazan product (Formazan dye) by the dehydrogenase in cells under the action of the electron carrier dimethyl 1-methoxy-5-methylphenazinium sulfate (1-Methoxy PMS). The amount of the produced formazan is proportional to the number of living cells. Therefore, the survival rate of cells can be calculated indirectly by measuring the absorbance at 450 nm. The half inhibition rate of the compound on the proliferation of H3122, SET2, HEL cells can be determined by the CCK-8 method.
(§2) RPIM medium containing 10% FBS was used to culture cells (100 μL per well), and 3500 cells were inoculated into a 96-well plate, and placed in a 37° C., 5% CO2 incubator for 24 h, until 50%-70% of the cell confluence was achieved. Drugs with different concentration gradients were added respectively, and incubated for another 72 hrs. […] And finally the absorption value of each well was measured at 450 nm.
(§3) NOTE: HEL, SET-2, H3122 cells were purchased from ATCC (American type culture collection), Z′-LYTETM kinase assay platform was purchased from Invitrogen, HTRF KinEASETM-TK was purchased from Cisbio, and Cell Counting Kit-8 was purchased from Beyotime.

ALK = ALK (Homo sapiens, UniProt Q9UM73); assay: ALK kinase IC50 test (HTRF); type: biochemical
Chain of ALK (Q9UM73 19-1620, species assumed): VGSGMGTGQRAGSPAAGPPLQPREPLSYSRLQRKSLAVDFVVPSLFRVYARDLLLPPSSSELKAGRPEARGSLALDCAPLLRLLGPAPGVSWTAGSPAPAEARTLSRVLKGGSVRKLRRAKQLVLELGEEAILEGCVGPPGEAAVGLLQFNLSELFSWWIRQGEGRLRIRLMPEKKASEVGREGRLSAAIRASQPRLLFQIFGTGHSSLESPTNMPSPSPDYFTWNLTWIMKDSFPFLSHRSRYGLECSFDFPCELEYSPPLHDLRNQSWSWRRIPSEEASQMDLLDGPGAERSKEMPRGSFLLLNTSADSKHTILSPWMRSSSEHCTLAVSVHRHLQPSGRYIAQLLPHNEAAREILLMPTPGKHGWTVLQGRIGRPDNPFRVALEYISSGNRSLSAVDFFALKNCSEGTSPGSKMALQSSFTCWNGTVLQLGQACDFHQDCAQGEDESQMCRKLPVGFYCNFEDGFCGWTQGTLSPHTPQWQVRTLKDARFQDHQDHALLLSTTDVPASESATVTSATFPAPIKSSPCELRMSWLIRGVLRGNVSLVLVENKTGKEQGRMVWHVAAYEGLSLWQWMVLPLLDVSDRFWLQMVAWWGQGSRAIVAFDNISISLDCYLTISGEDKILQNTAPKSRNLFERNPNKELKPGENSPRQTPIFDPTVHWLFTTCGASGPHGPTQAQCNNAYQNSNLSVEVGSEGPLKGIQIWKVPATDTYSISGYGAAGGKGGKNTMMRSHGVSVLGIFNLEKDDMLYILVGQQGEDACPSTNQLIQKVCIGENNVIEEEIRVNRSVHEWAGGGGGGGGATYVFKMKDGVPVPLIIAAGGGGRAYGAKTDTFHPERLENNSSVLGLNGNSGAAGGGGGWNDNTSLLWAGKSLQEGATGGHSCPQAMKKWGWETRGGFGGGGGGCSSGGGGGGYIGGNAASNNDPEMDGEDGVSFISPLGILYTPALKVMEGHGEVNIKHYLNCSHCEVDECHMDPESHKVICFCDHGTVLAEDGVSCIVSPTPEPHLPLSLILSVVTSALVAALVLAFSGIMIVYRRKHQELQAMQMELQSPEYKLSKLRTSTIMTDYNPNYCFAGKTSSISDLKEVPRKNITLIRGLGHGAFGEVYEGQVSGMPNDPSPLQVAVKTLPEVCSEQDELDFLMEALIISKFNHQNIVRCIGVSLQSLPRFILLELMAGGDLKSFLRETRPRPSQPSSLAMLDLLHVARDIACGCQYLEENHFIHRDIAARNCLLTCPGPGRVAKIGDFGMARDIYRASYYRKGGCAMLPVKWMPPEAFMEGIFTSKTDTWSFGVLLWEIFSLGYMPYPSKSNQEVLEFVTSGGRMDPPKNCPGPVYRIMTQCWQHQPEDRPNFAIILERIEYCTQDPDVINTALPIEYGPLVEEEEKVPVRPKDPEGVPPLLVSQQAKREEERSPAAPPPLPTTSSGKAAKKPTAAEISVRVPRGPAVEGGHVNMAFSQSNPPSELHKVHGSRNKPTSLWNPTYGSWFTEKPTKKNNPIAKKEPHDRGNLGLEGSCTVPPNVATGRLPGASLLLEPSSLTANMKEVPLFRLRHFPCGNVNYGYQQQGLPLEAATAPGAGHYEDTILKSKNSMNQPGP
Text: According to HTRF method, the peptide substrate was labeled with a biotin, which can specifically bind to XL665-labeled streptavidin. When the kinase adds a phosphate group to the polypeptide substrate in the first step, its Eu-labeled specific phosphorylation antibody can recognize and bind to it. In this way, in the second step of detection, a complex of XL665-labeled streptavidin, phosphorylated peptide substrate and Eu-labeled phosphorylation antibody can be formed. Since the distance between XL665 and Eu is short, FRET can be formed. On the other hand, Eu has a relatively long fluorescence half-life and can be applied to time-resolved fluorescence detection.
10 μL of reaction system, 4 μL test compound, 2 μL kinase, 2 μL biotin-labeled substrate and 2 μL ATP, was added into a 384-well plate, shaken for 30 s, and incubated at room temperature for 1 hour. 5 μL of Eu-labeled phosphorylation site-specific antibody and 5 μL of XL665-labeled streptavidin were added. The reaction system was shaken for 30 s, and incubated at room temperature for 1 hour. A microplate reader was used to detect the fluorescence signal. The inhibition rates of the compounds under 8 concentration gradients were determined, and the IC50 value of each compound was calculated by fitting curve with Origin 8.0. […] Each experiment was performed in triplicate.
as §3

HEL (JAK2 V617F) cells = assay: CCK-8 cell proliferation detection, HEL cells; type: cell-based; settings: Homo sapiens, Table 2, CCK-8, 72 hrs
Text: as §1, §2, §3

H3122 cells = assay: CCK-8 cell proliferation detection, H3122 cells; type: cell-based
Text: as §1, §2, §3

JAK2 = JAK2 (Homo sapiens, UniProt O60674); assay: JAK2 kinase activity test at molecular level (Z'-LYTE FRET); type: biochemical
Chain of JAK2 (O60674 whole entry): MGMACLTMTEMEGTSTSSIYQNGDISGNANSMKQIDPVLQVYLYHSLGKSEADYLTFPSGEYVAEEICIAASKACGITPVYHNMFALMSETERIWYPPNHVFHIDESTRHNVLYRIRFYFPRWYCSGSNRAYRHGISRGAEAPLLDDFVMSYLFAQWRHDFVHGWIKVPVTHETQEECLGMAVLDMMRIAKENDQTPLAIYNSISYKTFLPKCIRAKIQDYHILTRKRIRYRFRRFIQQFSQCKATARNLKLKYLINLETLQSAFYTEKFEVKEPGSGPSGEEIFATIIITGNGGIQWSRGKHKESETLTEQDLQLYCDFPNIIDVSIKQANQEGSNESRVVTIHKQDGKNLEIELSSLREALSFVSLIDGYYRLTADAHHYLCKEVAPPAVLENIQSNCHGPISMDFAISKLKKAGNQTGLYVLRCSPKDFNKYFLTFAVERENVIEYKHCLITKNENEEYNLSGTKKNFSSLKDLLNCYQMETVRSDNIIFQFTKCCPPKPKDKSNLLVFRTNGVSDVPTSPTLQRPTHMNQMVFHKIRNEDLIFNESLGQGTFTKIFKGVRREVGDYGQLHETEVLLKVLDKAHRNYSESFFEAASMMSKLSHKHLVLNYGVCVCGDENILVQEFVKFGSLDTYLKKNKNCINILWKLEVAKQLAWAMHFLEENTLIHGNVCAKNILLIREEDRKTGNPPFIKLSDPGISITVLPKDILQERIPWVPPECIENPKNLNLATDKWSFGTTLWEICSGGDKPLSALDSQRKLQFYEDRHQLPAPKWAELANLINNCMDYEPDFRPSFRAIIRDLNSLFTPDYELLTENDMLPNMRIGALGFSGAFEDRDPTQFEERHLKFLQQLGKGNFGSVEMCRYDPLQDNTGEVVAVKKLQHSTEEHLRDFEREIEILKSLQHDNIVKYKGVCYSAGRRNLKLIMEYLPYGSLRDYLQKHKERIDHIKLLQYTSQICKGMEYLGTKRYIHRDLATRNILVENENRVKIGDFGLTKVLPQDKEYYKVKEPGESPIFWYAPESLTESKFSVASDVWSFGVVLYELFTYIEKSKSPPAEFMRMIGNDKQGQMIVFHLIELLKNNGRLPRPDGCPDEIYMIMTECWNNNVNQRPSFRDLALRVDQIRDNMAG
Method: JAK2 can catalyze the transfer of a phosphate group of adenosine triphosphate (ATP) to a polypeptide substrate, and the polypeptide substrate is labeled with two fluorescent groups, coumarin and fluorescein. […] Therefore, the inhibition rates of different compounds can be calculated by measuring the ratio of enzyme-catalyzed substrate phosphorylation percentages.
10 μL reaction system, 2.5 μL test compound, 5 μL kinase/peptide substrate mixture and 2.5 μL ATP solution were added into a 384-well plate, shaken for 30 s, and incubated at room temperature for 1 hour. 5 μL of proteolytic enzyme and 15 μL of the reaction system were added and shaken for 30 s and incubated at room temperature for 1 h. 5 μL of stop reagent was added, and the reaction system with a total volume of 20 μL was shaken for 30 seconds. A microplate reader was used to detect the fluorescence signal. […] The inhibition rates of the compound at 7 concentration gradients were determined, and the IC50 value for each compound was calculated by fitting curve with Origin 8.0.
as §3

[1] = Homo sapiens, NCI-H3122, Table 2, CCK-8, 72 hrs
[2] = Table 1, read-out: JAK2 kinase activity IC50
[3] = Homo sapiens, NCI-H3122, 72 h, Table 2, CCK-8, 72 hrs
[4] = Table 4, configurations of MXY-193
[5] = Homo sapiens, NCI-H3122, Table 4, configurations of MXY-193

Structure (SMILES)	IC50 (ALK; Table 2) [µM]	IC50 (H3122 cells; [1]) [µM]	IC50 (JAK2; Table 2, read-out: JAK2 IC50) [µM]	IC50 (JAK2; [2]) [µM]	IC50 (H3122 cells; [3]) [µM]	IC50 (ALK; [4]) [µM]	IC50 (H3122 cells; [5]) [µM]	IC50 (H3122 cells; [4]) [µM]	IC50 (SET 2 (JAK2 V617F) cells; SET-2) [µM]	IC50 (HEL (JAK2 V617F) cells) [µM]	IC50 (SET 2 (JAK2 V617F) cells; SET-2, 72 h) [µM]	IC50 (HEL (JAK2 V617F) cells; 72 h) [µM]
CC(Oc1cc(-c2cnoc2)cnc1N)c1cc(F)ccc1Cl (centres unmarked) [XFL-137]	> 10	> 100	> 10						> 10	> 50		
N#CC[C@H](C1CCCC1)n1cc(-c2ncnc3[nH]ccc23)cn1 [Ruxolitinib, reference compound]		27.2 ± 3.39										
CCOC(C)n1cc(-c2cnc(N)c(OC(C)c3cc(F)ccc3Cl)c2)cn1 (centres unmarked) [MXY-032-91]	5.28	2.08 ± 0.803	0.157 ± 0.031						6.34	4.56		
C[C@@H](Oc1cc(-c2cnn(C3CCNCC3)c2)cnc1N)c1c(Cl)ccc(F)c1Cl [Crizotinib, reference compound]					0.842 ± 0.056						0.47	7.3
CC(Oc1cc(-c2cnn(C3CCOCC3)c2)cnc1N)c1cc(F)ccc1Cl (centres unmarked) [MXY-193]	> 10				78.8 ± 2.27	> 10	78.8 ± 2.27					
CC(Oc1cc(Nc2ccccn2)cnc1N)c1cc(F)ccc1Cl (centres unmarked) [MXY-175]	> 10	> 100	1.1 ± 0.081						11	2.23		
CC(Oc1cc(-c2nccs2)cnc1N)c1cc(F)ccc1Cl (centres unmarked) [XFL-169]	> 10	> 100	1.12 ± 0.014						8.17	15.9		
CC(Oc1cc(-n2cccn2)cnc1N)c1cc(F)ccc1Cl (centres unmarked) [XFL-179]	7.78	> 100	0.931 ± 0.032						> 50	> 50		
CC(Oc1cc(Nc2ccccc2)cnc1N)c1cc(F)ccc1Cl (centres unmarked) [MXY-171]	> 10	17.57 ± 0.161	3.35 ± 0.063						2.14	2.11		
CC(Oc1cc(-c2cnn(C3CCOCC3)c2)cnc1N)c1cc(F)ccc1Cl (single isomer, unassigned) [Configuration 1]						6.5	56.7					
CC(Oc1cc(-c2cc3ccccc3[nH]2)cnc1N)c1cc(F)ccc1Cl (centres unmarked) [MXY-141]	> 10	> 100							13.2	12.2		
CC(Oc1cc(-c2cn(C)c3ccccc23)cnc1N)c1cc(F)ccc1Cl (centres unmarked) [MXY-89]	7.89	6.874 ± 0.022	0.695 ± 0.002						11	2.44		
CC(Oc1cc(Nc2nccc3ccccc23)cnc1N)c1cc(F)ccc1Cl (centres unmarked) [MXY-032-87]	> 10	17.4 ± 0.25	> 10						> 50	9.47		
CC(Oc1cc(-c2ccn[nH]2)cnc1N)c1cc(F)ccc1Cl (centres unmarked) [XFL-141]		78.6 ± 3	0.3021 ± 0.003						2.48	5.41		
CC(Oc1cc(Nc2ccc3ccccc3n2)cnc1N)c1cc(F)ccc1Cl (centres unmarked) [MXY-032-85]	> 10	12 ± 2.32	> 10						> 50	5.74		
CC(Oc1cc(Nc2cc3ccccc3cn2)cnc1N)c1cc(F)ccc1Cl (centres unmarked) [MXY-032-69]	> 10	25.3 ± 6.24	> 5						> 50	10.7		
CC(Oc1cc(-c2cnn(C3CCNCC3)c2)cnc1N)c1c(Cl)ccc(F)c1Cl (centres unmarked) [WWQ-1093-65, 4-{3-[1-(2,6-dichloro-3-fluorophenyl)ethoxy]-2-aminopyridine}pyrazole-1-piperidine]					0.648 ± 0.044						1.49	11.7
CC(Oc1cc(-c2cn(C)cn2)cnc1N)c1cc(F)ccc1Cl (centres unmarked) [XFL-171]	> 10	11.9 ± 0.31	1.84 ± 0.025						4.47	13.5		
CC(Oc1cc(-c2cnn(C3CCOCC3)c2)cnc1N)c1cc(F)ccc1Cl (single isomer, unassigned) [Configuration 2]						> 10		> 100				

Continued by falling IC50 (ALK; Table 2), values first:

IC50 (ALK; Table 2) [µM]	IC50 (H3122 cells; [1]) [µM]	IC50 (JAK2; Table 2, read-out: JAK2 IC50) [µM]	IC50 (JAK2; [2]) [µM]	IC50 (H3122 cells; [3]) [µM]	IC50 (ALK; [4]) [µM]	IC50 (H3122 cells; [5]) [µM]	IC50 (H3122 cells; [4]) [µM]	Structure (SMILES)	IC50 (SET 2 (JAK2 V617F) cells; SET-2) [µM]	IC50 (HEL (JAK2 V617F) cells) [µM]	IC50 (SET 2 (JAK2 V617F) cells; SET-2, 72 h) [µM]	IC50 (HEL (JAK2 V617F) cells; 72 h) [µM]
3.89	11.6 ± 6.02	0.528 ± 0.008						CC(Oc1cc(-c2cccc(N3CCOCC3)c2)cnc1N)c1cc(F)ccc1Cl (centres unmarked) [MXY-032-55]	18.6	5.99		
3.67	> 100	0.566 ± 0.029						CC(Oc1cc(-c2cncnc2)cnc1N)c1cc(F)ccc1Cl (centres unmarked) [MXY-032-45]	> 10	> 10		
3.56	3.537 ± 0.034	0.1 ± 0.002	0.1 ± 0.002					CCC(Oc1cc(-c2cnn(C3CCNCC3)c2)cnc1N)c1c(Cl)ccc(F)c1Cl (centres unmarked) [WWQ-1093-13, 4-{3-[1-(2,6-dichloro-3-fluorophenyl)propoxy]-2-aminopyridine}pyrazol-1-piperidine]	7.86	37.3		
3.37	1.45 ± 0.118	0.844 ± 0.1						Cc1n[nH]c(C)c1-c1cnc(N)c(OC(C)c2cc(F)ccc2Cl)c1 (centres unmarked) [XFL-107]	3.35	9.14		
2.36	1.36 ± 0.869	0.011 ± 0.001						COCCn1cc(-c2cnc(N)c(OC(C)c3cc(F)ccc3Cl)c2)cn1 (centres unmarked) [MXY-032-95]	3.9	2.34		
2.34	62.5 ± 4.78	0.145 ± 0.01						CC(Oc1cc(-c2cnn3cccnc23)cnc1N)c1cc(F)ccc1Cl (centres unmarked) [MXY-181]	> 50	49		
2.33	1.98 ± 0.84	0.015 ± 0.001						COCCCn1cc(-c2cnc(N)c(OC(C)c3cc(F)ccc3Cl)c2)cn1 (centres unmarked) [MXY-032-93]	2.88	3.45		
1.23	3.3 ± 0.05	0.061 ± 0.007						CC(Oc1cc(-c2cnn3ccccc23)cnc1N)c1cc(F)ccc1Cl (centres unmarked) [MXY-97]	4.51	1.85		
0.511	> 10	0.442 ± 0.003	0.442 ± 0.003					CC(Oc1cc(-c2cnn(C3CCNCC3)c2)cnc1N)c1c(Cl)cccc1Cl (centres unmarked) [WWQ-133, 4-{3-[1-(2,6-dichlorophenyl)ethoxy]-2-aminopyridine}pyrazol-1-piperidine]	0.879	15		
0.438	2.1 ± 0.344	0.0408 ± 0.0006						Cc1n[nH]cc1-c1cnc(N)c(OC(C)c2cc(F)ccc2Cl)c1 (centres unmarked) [XFL-147]	4.05	6.15		
0.335	9.91 ± 1.28	0.025 ± 0.001						CC(Oc1cc(-c2cnn(C3COC3)c2)cnc1N)c1cc(F)ccc1Cl (centres unmarked) [MXY-032-51]	31.2	4.67		
0.201	3.52 ± 0.605	0.024 ± 0.002						CC(Oc1cc(-c2cnn(C)c2)cnc1N)c1cc(F)ccc1Cl (centres unmarked) [XFL-111]	7.56	9.05		
0.132	0.988 ± 0.047							COc1ncc(F)cc1C(C)Oc1cc(-c2cnn(C3CCNCC3)c2)cnc1N (centres unmarked) [MXY-111]	2.48	12.4		
0.089			0.0067 ± 0.001	1.591 ± 0.014				CC(Oc1cc(-c2cnn(C3CCNCC3)c2)cnc1N)c1cc(F)ccc1Cl (centres unmarked) [WWQ-131, 4-{3-[1-(2-chloro-5-fluorophenyl)ethoxy]-2-aminopyridine}pyrazol-1-piperidine]			1.33	9.78
